Data on two molecules can be found in PMC11253855, “Phosphonodiamidate prodrugs of phosphoantigens (ProPAgens) exhibit potent Vγ9/Vδ2 T cell activation and eradication of cancer cells” (RSC Medicinal Chemistry, 2024).

Series [1] can be described thus: Human serum stability assay (31P NMR). The class given is in vitro ADME. Conditions: 37 °C, read-out: human serum stability t1/2. Here is the method:
Upon synthesis, we first studied whether these phosphonodiamidate ProPAgens are stable in human serum. As a representative of this class of phosphonodiamidate ProPAgens in the serum stability studies, we chose ProPAgen 9b, which has an iPr ester like the two FDA-approved phosphoramidate prodrugs, sofosbuvir and tenofovir alafenmide.[24,33] Thus, ProPAgen 9b was incubated with human serum at 37 °C for […] and monitored the sample by ^31P NMR, as we reported previously.[20] […] Following the incubation of the phosphonodiamidate ProPAgen 9b with human serum and monitoring of the sample by ^31P-NMR, these original 9b^31P-NMR peaks remained present through the 7.5 h of the study, and no new ^31P-NMR peaks were observed. […] This stability profile is in line with the aryloxy diester phosphoramidate prodrugs of these monophosphonates that we reported[20] before and that of the analogous symmetrical nucleoside phosphorodiamidate prodrugs.[26]
Fig. 2 Stability of the HMBP phosphonodiamidate ProPAgen 9b in human serum at 37 °C for 7.5 h as monitored by ^31P NMR. […]
This experiment was carried out as previously reported.[20,26,40] […] After recording the first ^31P NMR data, 0.3 mL human serum (Merck Life Sciences) was added and monitored by NMR. […] Recorded data were processed and analyzed with Bruker Topspin 2.1 software.

In series [2] the test system is Vγ9/Vδ2 T cells. Put plainly: In vitro Vγ9/Vδ2 T cell activation assay (PBMCs, CD69+ CD25+ by flow cytometry). The class given is cell-based, human. Conditions: Homo sapiens, T-cell, read-out: EC50 (activation of Vγ9/Vδ2 T cells). Here is the method:
Subsequently, we studied the ability of these HMBP phosphonodiamidate ProPAgens to activate Vγ9/Vδ2 T cells and elicit their lysis of cancer cells in vitro. For this, peripheral blood mononuclear cells (PBMCs) derived from healthy donors and containing Vγ9/Vδ2 T cells were incubated with increasing concentrations of zoledronate or phosphonodiamidate HMBP ProPAgens 9a–d and 14a–d (up to 100 μM) (Fig. 4). Peripheral blood γδ T cells lack appreciable levels of surface CD69 or CD25 under steady-state conditions, but TCR stimulation upregulates both T cell activation markers.[6] Thus, PAg-responsive Vγ9/Vδ2 T cells were then assessed for the upregulation of CD69 and CD25.
Fig. 4 In vitro phosphonodiamidate ProPAgen-mediated activation of Vγ9/Vδ2 T cells, following overnight incubation with zoledronate, and HMBP ProPAgens 9a–d and 14a–d. Levels of activation are represented as % of Vγ9/Vδ2 T cells that are CD69+ CD25+. Data is shown as mean ± SE (n = 4). (A) Activation of Vγ9/Vδ2 stimulated by phosphonodiamidate ProPAgens 9a–d. (B) Activation of Vγ9/Vδ2 stimulated by ProPAgens 14a–d. (C) Activation of Vγ9Vδ2 stimulated by zoledronate (Zol). (D) EC50 values were calculated using GraphPad Prism v9 based on the results of the activation assay.
As for the activation of Vγ9/Vδ2 T cells by the phosphonodiamidate ProPAgens (9a–d and 14a–d), these were initially tested using a concentration range from […] to 100 μM (Fig. 4A and B).
Healthy donor peripheral blood mononuclear cells (PBMCs) were harvested as previously described.[20] To assess the activation of Vγ9/Vδ2 T cells, PBMCs were seeded into U-bottom tissue culture-treated 96-well plates at a cell density of 500 000 cells per well. The cells were incubated with medium-only (control), in the presence of zoledronate at 10 pM to 100 μM, and with HMBP ProPAgens initially at 10 pM to 100 μM, and then at 1 aM to 100 μM for compounds 9d and 14d in a separate experiment. The cells were incubated at 37 °C/5% CO2 overnight, and stained by flow cytometry for the following markers: viability (Zombie Aqua 1 : 400), CD3 (BV421 1 : 100), CD8 (BV650 1 : 200), Vγ9 (PEcy5 1 : 400), Vδ2 (APC 1 : 200), CD69 (PE 1 : 25), CD25 (FITC 1 : 100). The samples were acquired via LSRFortessa X20 (BD Biosciences), and the data obtained were analyzed using FlowJo v10 and GraphPad Prism v9 software.
Background: In flow cytometry, cells or beads pass a laser one at a time.

The target in series [3] is T1, carboxypeptidase Y (Saccharomyces cerevisiae, UniProt P00729).
T1 sequence (P00729 112-532): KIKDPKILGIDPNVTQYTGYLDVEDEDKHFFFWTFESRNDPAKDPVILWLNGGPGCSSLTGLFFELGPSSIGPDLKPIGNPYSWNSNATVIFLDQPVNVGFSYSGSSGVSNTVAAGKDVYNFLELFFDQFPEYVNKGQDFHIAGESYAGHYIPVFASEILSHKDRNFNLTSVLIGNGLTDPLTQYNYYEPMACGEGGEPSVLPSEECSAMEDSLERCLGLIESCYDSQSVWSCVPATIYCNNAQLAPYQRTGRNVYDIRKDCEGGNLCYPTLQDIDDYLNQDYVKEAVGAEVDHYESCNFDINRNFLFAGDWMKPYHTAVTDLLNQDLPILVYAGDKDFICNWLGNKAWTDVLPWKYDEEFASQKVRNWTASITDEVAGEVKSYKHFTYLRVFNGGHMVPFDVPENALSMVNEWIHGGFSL
Put plainly: Carboxypeptidase Y assay (31P NMR). The class given is in vitro ADME. As to conditions: recombinant carboxypeptidase Y, 37 °C, 6.5 h. Here is the method:
Fig. 3 Metabolism of diamidate ProPAgens.
With this postulated mechanism of phosphonodiamidate prodrugs in mind, we subsequently incubated the phosphonodiamidate ProPAgen 9b with recombinant carboxypeptidase Y at 37 °C and monitored the reaction by ^31P-NMR for 6.5 h. […] Upon addition of carboxypeptidase Y and within 0.5 h, a new ^31P NMR triplet (δP = 6.82, 7.27 and 7.72 ppm) appeared and became prominent as the assay proceeded while the original ^31P NMR peaks (δP = 14.16, 14.67 and 15.14 ppm) corresponding to ProPAgen 9b reduced over time.
This experiment was carried out as previously reported.[20,26,40] 5.0 mg of the phosphonodiamidate ProPAgen 9b was dissolved in 0.2 mL of acetone, and 0.4 mL of Trizma buffer (pH 7.4) was added followed by 0.5 mg carboxypeptidase Y in 0.2 ml Trizma buffer (pH 7.4). The experiment was run on NMR phosphorus mode and scanned every half an hour for 6.5 h. The incubation temperature was 37 °C. Recorded data were processed and analyzed with Bruker Topspin 2.1 software.

The subject of series [4] is cancer patients. Details: method as in PMID 18301889, PMID 20563721. As to conditions: in combination with a low dose of IL-2; cited from earlier work.

pEC50: −log10 of the molar value.

Turning to `C/C(=C\CC(F)(F)P(=O)(N[C@@H](C)C(=O)OC(C)C)N[C@@H](C)C(=O)OC(C)C)CO` [9b, Diisopropyl 2,2′-((((E)-1,1-difluoro-5-hydroxy-4-methylpent-3-en-1-yl)phosphoryl)bis(azanediyl))(2S,2′S)-dipropionate], the half-life at 10 mg/mL in series [1] is greater than 7.5 h. In addition, the pEC50 in series [2] is 6.78. Further, the “carboxypeptidase Y-mediated breakdown” value in series [3] is “not fully metabolised”.

Turning to `CC(O)(CBr)CCOP(=O)(O)OP(=O)(O)O` (stereo not shown) [BrHPP, bromohydrin pyrophosphate], in series [4], the “safety and tolerability in cancer patients” value is “safe and well tolerated”.
